Assay [1] has as its system Human ovarian carcinoma IGROV-1/Pt (platinum resistant). Nature of the assay: Cytotoxicity test (sulphorodamine B), IGROV-1/Pt. Format: cell-based. Conditions: 24 h incubation, survival 48 h after removal. An excerpt: Different cell lines deriving from solid tumors were also used. • 1. Human prostate carcinoma PC3 and DU145. These cell lines were maintained in RPMI 1640 medium containing 10% FCS, 1% sodium pyruvate and 1% glutamine; • 2. Human colon adenocarcinoma LoVo. This cell line was maintained in HAM's F-12 medium, containing 10% FCS and 1% glutamine. • 3. Human ovarian carcinoma such as A2780 and A2780/Dx, sensitive and resistant to drugs, respectively (doxorubicin, taxol, etoposide, vincristine); IGROV-1 and IGROV-1/Pt, sensitive and resistant to platinum-based chemotherapy, respectively, were maintained in RPMI 1640 medium containing 10% FCS, 1% sodium pyruvate and 1% glutamine; • 4. Human melanoma MeWo and MeS 2.21, glioblastoma GBM, no small cell lung carcinomas A431, NCI—H460, osteosarcomas SAOS and U2OS were maintained in RPMI 1640 medium containing 10% FCS, 1% sodium pyruvate and 1% glutamine.
The cytotoxicity tests were carried out using NB4 or HL-60 cells in suspension (10000/well). The cells were seeded in a volume of 250 μl in 96 well plates and incubated for 24 hours at 37° C. […] The optical density was measured using a Multiskan spectrophotometer at 540 nm. […]
Cell survival was determined by incubation with ST1926 for 24 hours, 48 hours after the removal of the compound. […]

In assay [2] the test system is M109 murine lung carcinoma cells. Nature of the assay: Cytotoxicity in combination with TRAIL, M109. Format: cell-based. Conditions: M109, 72 hours, value >1 synergism (FIG. 2). The method, then:
FIG. 2 is a graph showing the interaction between ST1926 and TRAIL in M109 murine lung carcinoma cells at different concentrations of TRAIL.
A study of cytotoxicity of ST1926 in combination with TRAIL was performed in two different tumor cell lines such as M109 murine lung carcinoma and A2780/Dx multidrug-resistant human ovarian carcinoma. Cells were maintained in RPMI 1640 medium containing 10% FCS, 1% sodium pyruvate and 1% glutamine.
The cells were seeded in a volume of 250 μl in 96 well plates and incubated for 24 hours at 37° C. The following day, test compound ST 1926 [(2E)-3-[3′-(1-Adamantyl)-4′-hydroxy[1,1′-biphenyl]-4-yl]-2-propenoate/ic acid] or TRAIL were added at increasing concentrations, and the cells were incubated for a further 72 hours at 37° C. in a humidified atmosphere containing 5% CO2. On the 5th day, the supernatant was removed by upturning the plates. 200 μl of PBS and 50 μl of cold, 80% TCA were added. The plates were then left to incubate on ice for at least 1 hour. The TCA was removed by upturning; the plates were washed three times by immersion in distilled water and dried first on paper, then with a jet of hot air. […] The optical density was measured using a Multiskan spectrophotometer at 540 nm.
The interaction between ST1926 and TRAIL was determined by using the analysis of Drewinko et al. (Cancer Biochem. Biophys. 1: 187-195, 1976). […]

`O=C(O)/C=C/c1ccc(-c2ccc(O)c(C34CC5CC(CC(C5)C3)C4)c2)cc1` [ST1926, E-4-(3-(1-adamantyl)-4-hydroxyphenyl)cinnamic acid] came in with an IC50 in assay [1] of 330 nM. Moreover, the “interaction between ST1926 and TRAIL (analysis of Drewinko et al.)” value in assay [2] is listed as “synergic activity”.

For the origin of these results see patent publication US7449495B2, “Retinoid derivatives with antiangiogenic, antitumoral and proapoptotic activities” (Sigma-Tau Industrie Farmaceutiche Riunite S.p.A., priority 2001, dated 2008).
